{
  "source": "patent USRE45272E1",
  "about": "“β-glucuronide-linker drug conjugates” (priority 2005, dated 2014)",
  "format_in_all_cases": "cell-based",
  "key": {"[1]": {"tested_on": "Caki-1 (CD70+, CD30−) renal cell carcinoma cells", "experiment": "In vitro growth inhibition (resazurin), Caki-1", "method": "(§1) In vitro growth inhibition. Cells were collected and plated in 96 well black-sided plates at a density of 10,000 cells/well in 150 μL of medium. Serial dilutions of the ADC (50 μL) were added, and incubation was carried out for 92 h at 37° C. After addition of ADC, cultures were incubated to 96 h at 37° C. Resazurin (0.25 mM, 50 μL, Sigma, St. Louis, Mo.) in medium was added and incubation was continued for 4 h. The plates were read on a Fusion HT microplate reader (Packard, Meriden, Conn.) using an excitation wavelength of 525 nm and an emission wavelength of 590 nm. Data from all assays were reduced using GraphPad Prism Version 4 for Windows (GraphPad Software, San Diego, Calif.). The IC50 concentrations compared to untreated control cells were determined using a 4 parameter curve fits."}, "[2]": {"tested_on": "786-O (CD70+, CD30−) renal cell carcinoma cells", "experiment": "In vitro growth inhibition (resazurin), 786-O", "method": "as §1"}, "[3]": {"tested_on": "Karpas 299 (CD30+, CD70−) ALCL cells", "experiment": "In vitro growth inhibition (resazurin), Karpas 299", "method": "as §1"}, "[4]": {"tested_on": "Caki-1, 786-O and Karpas 299 cell lines", "experiment": "In vitro cytotoxicity, statements across Caki-1, 786-O and Karpas 299", "settings": "for IC50: read-out: IC50 on Caki-1, 786-O and Karpas 299 (all lines)", "method": "as §1\nResults. […] The negative charge associated with the carboxylate group of 1b leads to reduced cytotoxic activity, presumably due to impaired intracellular access.\nThe ADCs of 9b effectively delivered 1b to the targeted cells. […] Conjugates of doxorubicin drug-linker 17 gave the same general profile with effective cell kill on antigen positive cell lines and specificity values >16-fold."}, "[5]": {"settings": "96 h exposure, resazurin metabolism, vs untreated cells, drug content, read-out: Caki-1 (CD70+, CD30−) IC50 drug"}, "[6]": {"settings": "96 h exposure, resazurin metabolism, vs untreated cells, drug content, read-out: 786-O (CD70+, CD30−) IC50 drug"}, "[7]": {"settings": "96 h exposure, resazurin metabolism, vs untreated cells, drug content, read-out: Karpas 299 (CD30+, CD70−) IC50 drug"}},
  "note": "Structures can show the parent of a compound that is named as a salt. Where two headings read alike, the source gives them in different places. Square brackets hold non-standard residues; d marks the D form. Peptide text beside a SMILES is read from it. * marks the point of attachment. Dolaproine = CO[C@@H]([C@@H]1CCCN1)[C@@H](C)C(=O)O; Dil = CC[C@H](C)[C@H](NC)[C@@H](CC(=O)O)OC; X1 = C[C@@H](N*)[C@@H](O)c1ccccc1; NMeV = CN[C@H](C(=O)O)C(C)C",
  "data": [
    {"smiles": "CC[C@H](C)[C@@H]([C@@H](CC(=O)N1CCC[C@H]1[C@H](OC)[C@@H](C)C(=O)N[C@H](C)[C@@H](O)c1ccccc1)OC)N(C)C(=O)[C@@H](NC(=O)[C@@H](NC)C(C)C)C(C)C", "note": "[Compound 1a, monomethyl auristatin E] (H-[NMeV]V[Dil][Dolaproine]-X1)", "values": [
      {"measurement": "IC50", "setting": "[1]; [5]", "result": 0.11, "unit": "nM"},
      {"measurement": "IC50", "setting": "[2]; [6]", "result": 0.19, "unit": "nM"},
      {"measurement": "IC50", "setting": "[3]; [7]", "result": 0.09, "unit": "nM"}
    ]},
    {"smiles": "CC[C@H](C)[C@@H]([C@@H](CC(=O)N1CCC[C@H]1[C@H](OC)[C@@H](C)C(=O)N[C@@H](Cc1ccccc1)C(=O)O)OC)N(C)C(=O)[C@@H](NC(=O)[C@@H](NC)C(C)C)C(C)C", "note": "[Compound 1b, N-methylvaline-valine-dolaisoleuine-dolaproine-phenylalanine] (HELM PEPTIDE1{[meV].V.[CC[C@H](C)[C@@H]([C@@H](CC(=O)[*:2])OC)N(C)[*:1]].[CO[C@H]([C@@H](C)C(=O)[*:2])[C@@H]1CCCN1[*:1]].F}$$$$V2.0)", "values": [
      {"measurement": "IC50", "setting": "[1]; [5]", "result": 270, "unit": "nM"},
      {"measurement": "IC50", "setting": "[2]; [6]", "result": 300, "unit": "nM"},
      {"measurement": "IC50", "setting": "[3]; [7]", "result": 100, "unit": "nM"},
      {"measurement": "IC50", "setting": "[4]; statement for all three cell lines", "result": "100 to 200", "unit": "nM"}
    ]},
    {"smiles": "COc1cccc2c1C(=O)c1c(O)c3c(c(O)c1C2=O)C[C@@](O)(C(=O)CO)C[C@@H]3O[C@H]1C[C@H](N)[C@H](O)[C@H](C)O1", "note": "[Compound 15, doxorubicin-HCl]", "values": [
      {"measurement": "IC50", "setting": "[1]; Homo sapiens, CAKI-1, 96 h exposure, resazurin metabolism, vs untreated cells, drug content, read-out: Caki-1 (CD70+, CD30−) IC50 drug", "result": 110, "unit": "nM"},
      {"measurement": "IC50", "setting": "[2]; Homo sapiens, 786-0, 96 h exposure, resazurin metabolism, vs untreated cells, drug content, read-out: 786-O (CD70+, CD30−) IC50 drug", "result": 65, "unit": "nM"},
      {"measurement": "IC50", "setting": "[3]; Homo sapiens, KARPAS-299, 96 h exposure, resazurin metabolism, vs untreated cells, drug content, read-out: Karpas 299 (CD30+, CD70−) IC50 drug", "result": 29, "unit": "nM"}
    ]},
    {"smiles": "COc1cccc2c1C(=O)c1c(O)c3c(c(O)c1C2=O)C[C@@](O)(C(=O)CO)CC3OC1CC(NCCCC(OC(C)=O)OC(C)=O)C(O)C(C)O1", "note": "(stereo partly drawn) [Compound 18]", "values": [
      {"measurement": "IC50", "setting": "[1]; Homo sapiens, CAKI-1, 96 h, read-out: Caki-1 (CD70+, CD30−) IC50 drug nM", "result": 0.04, "unit": "nM"},
      {"measurement": "IC50", "setting": "[2]; Homo sapiens, 786-0, 96 h, read-out: 786-O (CD70+, CD30−) IC50 drug nM", "result": 0.01, "unit": "nM"},
      {"measurement": "IC50", "setting": "[3]; Homo sapiens, KARPAS-299, 96 h, read-out: Karpas 299 (CD30+, CD70−) IC50 drug nM", "result": 0.1, "unit": "nM"},
      {"measurement": "fold more cytotoxic than doxorubicin (15)", "setting": "[4]; across Caki-1, 786-O, Karpas 299", "result": "300-6500 fold"},
      {"measurement": "IC50", "setting": "[4]", "result": "< 0.2", "unit": "nM"}
    ]}
  ]
}
